Here are results for two compounds from the NIST ThermoML archive (doi:10.1016/j.jct.2016.01.008).

Structures are written as SMILES. ± gives the expanded uncertainty stated by the source.

The conditions of this data set: Liquid; for mass density: 298.15 K, 101.33 kPa, Vibrating tube method; for Normal boiling temperature: Ebulliometric method (Recirculating still).

On to `CCO` [ethanol], for which the mass density (as a rule, the mass of a sample divided by its volume) was found to be 785.27 ± 0.15 kg/m3 and the Normal boiling temperature was determined as 78.2 ± 0.4 °C.
On the same counts, the results for `CC12CCC(CC1)C(C)(C)O2` [1,3,3-trimethyl-2-oxabicyclo[2.2.2]octane] are 920.68 ± 0.12 kg/m3 and 176.1 ± 0.4 °C.
